Reference: US7345192B2, “Reduction of hair growth” (The Gillette Company, priority 2005, dated 2008)
Read-outs that look alike come from different tables or passages of the source.

Experiments:
[1] = Method: The penetration studies were carried out using Franz chambers. Hamster skin (non-flank organ region) was clipped and appropriate size pieces then cut and mounted between the lower and upper Franz cell chambers. The lower and upper chambers (with the skin in between) were then securely clamped together. A small magnetic stir bar was placed in the bottom of each chamber, 80 μL of 100× sodium azide to a final concentration of 0.2% was added as an anti-microbial agent, then the lower chamber was filled with phosphate buffered saline (PBS). PBS is added until the level in the side arm is just level with the mounted skin, slightly inverting the cells as necessary to remove any air bubbles that might occur. The Franz chambers are then placed in the appropriate size heating blocks and allowed to stand overnight at room temperature. […] Similarly, 20-40 μL of a 1% test formulation was applied over 8-10 chambers. Four hundred μL of the receptor fluid from the lower chamber was removed at 2, 4, 6, 8, 24 and 50 hours and placed in a scintillation vial. This PBS was then replaced with 400 μL of fresh PBS.
[2] = In vitro drug skin accumulation assay (tape-stripped skin after 50-hour diffusion); type: in vitro ADME, Hamster; conditions: for % Skin Deposition: skin after tape stripping of stratum corneum
Method: The penetration studies were carried out using Franz chambers.
After the 50-hour receiver fluid sample was taken, the diffusion set-up was dismantled. The skin section was mounted on a board and the stratum corneum skin layer was removed by tape stripping (3M Magic Tape 810). The section of the remaining skin exposed to the receiver fluid was isolated, placed in a vial containing 1 ml of Beckman Tissue Solubilizer-450, shaken for 4 days, and the resulting solution was assayed for the radiolabeled drug.

[3] = Ionization constants by potentiometric titration; type: physicochemical
Method: Although Schiff base formation is possible at both amino groups, sufficient selectivity can be achieved under buffered conditions or by terminating the reaction at an appropriate time. […] Three constants were obtained: pK1=0.084, pK2=6.437, pK3=10.393. Mono-conjugated Schiff base was prepared by reaction with a selected aldehyde or ketone under controlled buffer conditions.

Question: Which results are given for `COc1cc(C=NCCCC(N)(C(=O)O)C(F)F)ccc1O` (centres unmarked) [V-DFMO, 2-amino-2-difluoromethyl-5-[(4-hydroxy-3-methoxy-benzylidene)-amino]-pentanoic acid]?
Answer: Skin penetration, % of applied dose after 24 hr ([1]; hamster, 24 h, 1 % formulation): 3.34 ± 1.97 % of applied dose; Relative Deposition (fold increase over unconjugated DFMO) [2]: 1.2 fold; % Skin Deposition [2]: 0.96 ± 0.6%

Question: Which results are given for `CC(C=NCCCC(N)(C(=O)O)C(F)F)=Cc1ccccc1` (centres unmarked) [MCA-DFMO, 2-amino-2-difluoromethyl-5-(2-methyl-3-phenyl-allylideneamino)-pentanoic acid]?
Answer: Skin penetration, % of applied dose after 24 hr ([1]; hamster, 24 h, 1 % formulation): 3.28 ± 0.88 % of applied dose; Relative Deposition (fold increase over unconjugated DFMO) [2]: 5.0 fold; % Skin Deposition [2]: 4.00 ± 3.0%

Question: For `NC(CCCN=Cc1ccc2ccccc2c1)(C(=O)O)C(F)F` (centres unmarked) [N-DFMO, 2-amino-2-difluoromethyl-5-[([…]aphthalene-2-ylmethylene)-amino]-pentanoic acid], which “Skin penetration, % of applied dose after 24 hr” value (from here on “Skin penetration, %”) [1] is on record?
Answer: Its value is 3.91 ± 0.71 % of applied dose.

Question: Which results are given for `NCCC[C@](N)(C(=O)O)C(F)F` [DFMO, α-Difluoromethylornithine]?
Answer: Ionization constant pK1 [3]: 0.084; Ionization constant pK2 [3]: 6.437; Ionization constant pK3 [3]: 10.393

Question: Which “Skin penetration, %” value ([1]; hamster, 24 h, 1 % formulation) does the source give for `CC(C)c1ccc(C=NCCCC(N)(C(=O)O)C(F)F)cc1` (centres unmarked) [IPB-DFMO, 2-amino-2-difluoromethyl-5-[(4-isopropyl-benzylidene)-amino]-pentanoic acid] here?
Answer: Its value is 3.31 ± 0.98 % of applied dose.

Question: Which results are given for `NC(CCCN=Cc1ccccc1)(C(=O)O)C(F)F` (centres unmarked) [B-DFMO, 2-amino-5-(benzylidene-amino)-2-difluoromethyl-pentanoic acid]?
Answer: Initial Rate of Penetration ([1]; hamster, 2 h, 1 % formulation): 1.24 ± 1.16; Initial Rate of Penetration ([1]; hamster, 4 h, 1 % formulation): 1.65 ± 1.48; Initial Rate of Penetration ([1]; hamster, 6 h, 1 % formulation): 1.71 ± 1.50; Level of radiolabeled drug in the receptor fluid ([1]; hamster, 24 h, 1 % formulation): 10±1 % of the applied dose; Skin penetration, % of applied dose after 24 hr ([1]; hamster, 24 h, 1 % formulation): 9.63 ± 1.31 % of applied dose; Level of radiolabeled drug in the receptor fluid ([1]; hamster, 50 h, 1 % formulation): 16±3 % of the applied dose; Relative Deposition (fold increase over unconjugated DFMO) [2]: 7.4 fold; % Skin Deposition [2]: 5.92 ± 4.0%

Question: With `Cc1cc(C)c(C=NCCCC(N)(C(=O)O)C(F)F)c(C)c1` (centres unmarked) [M-DFMO, 2-amino-2-difluoromethyl-5-[(2,4,6-trimethyl-benzylidene)-amino]-pentanoic acid] as the compound, how does the “Skin penetration, %” value ([1]; hamster, 24 h, 1 % formulation) read?
Answer: Its value is 6.68 ± 1.68 % of applied dose.

Question: Which results are given for `COC(=O)C(N)(CCCN)C(F)F` (centres unmarked) [DFMO-OMe, 2,5-diamino-2-difluoromethyl-pentanoic acid methyl ester]?
Answer: Rate of Penetration ([1]; hamster, 4 h, 1 % formulation): 0.23 ± 0.18; Rate of Penetration ([1]; hamster, 6 h, 1 % formulation): 0.21 ± 0.16; Rate of Penetration ([1]; hamster, 24 h, 1 % formulation): 0.2 ± 0.13
